Assay results from publication PMC11394972 (International Journal of Molecular Sciences, 2024).

Tested on: MazF-mt3
Type: biochemical, Mycobacterium tuberculosis
Conditions: FAM-labeled 13-nt RNA substrate, 37 °C, 30 min

Molecule	reduction of the cleavage of the WT MazF-mt3 enzyme (Figure 4A)	suppression of the cleavage activity of MazF-mt3 (20 mM Tris-HCl pH 8.0, 150 mM NaCl, urea-PAGE, Figure S8)
MazE-mt3 α3–α4: peptide corresponding to the last two helices (α3-α4, Leu46-Trp82) of MazE-mt3; cocrystallized with MazF-mt3 (PDB 8ZWS) (LTGQIDRALESIHGTDEAEALAVANAYRVLETMDDEW)	15%	
MazE-mt3: full-length antitoxin of the M. tb MazEF-mt3 toxin–antitoxin pair, recombinantly expressed (protein, left off: His tag, end not stated, state not stated, full-length antitoxin of the M. tb MazEF-mt3 toxin–antitoxin pair, recombinantly expressed) MKTAISLPDETFDRVSRRASELGMSRSEFFTKAAQRYLHELDAQLLTGQIDRALESIHGTDEAEALAVANAYRVLETMDDEW		fully suppress
